Common to all, as to assay: NCI tumour cell line growth inhibition, 48 h
In assay [1] the test system is M19-MEL melanoma.
The test system of assay [2] is RXF-631 renal.
The subject of assay [3] is XF 498 CNS.
The subject of assay [4] is DMS 114 small cell lung.
Assay [5] relates to MDA-N.
Assay [6] concerns SNB-78 CNS.
The subject of assay [7] is HOP-18 NSCLC.
For assay [8], the system named is P388 leukemia.
The test system of assay [9] is SN12K1 renal.
Assay [10] deals with MCF7 breast.
Assay [11] has as its system P388/ADR leukemia.

“And” between values parts separate entries of the source, which are not always exact repeats. Identical values can stand only once.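 A five-concentration, 48-hour dose response in 96-well plates underlies each endpoint, interpolated linearly between surrounding concentrations. The concentration for 50% growth inhibition is given as GI50. The concentration for full growth arrest is given as TGI.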

On to `COC(=O)/C(=N\Nc1nnc(C)n1N)C(C#N)c1ccccc1` (stereo not given), for which the TGI was 32.8 µM in [1]; more than 100 µM in assay [2]; more than 100 µM in assay [3]; 42.8 µM in assay [4]; 44.4 µM in assay [5]; more than 100 µM in assay [6]. In addition, the TGI in assay [7] is more than 100 µM.

As for `CC(=O)NC(CCCN(Cc1ccccc1)C(=O)N(C)N=O)C(=O)NCc1ccccc1` (stereo not given), the TGI in assay [1], in [2], in assay [3], in assay [4] and in assay [6] was more than 100 µM in each case.

Take `CC(C)(C)Sc1nnc(SC(C)(C)C)c2c(=O)[nH]nc(SC(C)(C)C)c12`: the TGI in assay [1] turned out to be 14.8 µM; in assay [2] it was 20.5 µM; in assay [3], 28.7 µM; in assay [4], 15.5 µM; in assay [6] it was 25.8 µM.

With `Cn1nc(-c2ccccc2)c(C(=O)/C=C/c2ccc(Cl)cc2)c(N2CCCC2)c1=O`, the TGI worked out at 23.2 µM in assay [1]; 50.5 µM in [2]; 28.3 µM in assay [3]; 9.8 µM in assay [4]; 19.4 µM in assay [7].

On to `COc1ccc2c(c1)c1c3n2CCNN=C3CCC1`, for which the TGI in assay [1] was more than 100 µM; in assay [2], more than 100 µM; in assay [3], more than 100 µM; in assay [4] it was more than 100 µM; in assay [6], more than 94.3 µM; in assay [7], more than 100 µM.

For the molecule `CC(/C=N/N=C(N)N)=N\N=C(N)N`, the TGI in assay [8] was determined as 39.8 µM; in [3] it was 12 µM; in assay [4], 171 µM; in assay [5], 354 µM; in assay [9], 30.1 µM; in assay [6], 147 µM. For the same molecule, the results for the TGI in assay [10], in assay [11] and in assay [7] were 1120 µM, 352 µM and 2060 µM, respectively. In addition, the GI50 was 95.4 µM in assay [4], 26.8 µM in assay [5] and 19.4 µM in assay [10].

On to `c1ccc(-c2nnc3nn4c(-c5ccccc5)cnnc4c3c2-c2ccccc2)cc1`, for which the TGI in assay [1] is more than 100 µM; in assay [2] it was 66.7 µM; in assay [3], 57.1 µM; in [4] it was more than 100 µM; in assay [6], more than 100 µM; in assay [7] it was more than 100 µM.

In the case of `COC(=O)C(=O)C(C(=O)C(=O)Nc1cc(Cl)c(Cl)cc1Cl)c1nc2ccc([N+](=O)[O-])cc2[nH]c1=O` (stereo not given), the TGI is more than 100 µM in assay [1]; more than 100 µM in assay [2]; more than 100 µM in assay [3]; more than 100 µM in [4]; more than 100 µM in [6]; 95.2 µM in [7].

Turning to `CCCCCCCCCCCCCCCCCC(=O)NCC(COP(=O)(O)O)OCC` (stereo not given), the TGI in assay [1] was more than 100 µM; in [2], 77.2 µM; in assay [3], more than 100 µM; in assay [4], more than 100 µM; in assay [6], 83.3 µM.

For the molecule `Cc1ccc(/C=N/NS(=O)(=O)c2ccccc2)c(C)c1`, the TGI in [1], in [2], in assay [3], in assay [4], in [6] and in assay [7] was more than 100 µM in each case.

Turning to `O=c1[nH]cc(C(F)(C(F)(F)F)C(F)(F)F)c(=O)[nH]1`, the TGI in assay [1], in assay [2], in [3], in [4], in assay [6] and in [7] was more than 100 µM throughout.

In the case of `C/C(CC(=O)Nc1cccc([N+](=O)[O-])c1)=N\NC(=O)CC#N`, the TGI in assay [2], in assay [3], in assay [4] and in [6] was more than 100 µM in each case.

As to `Cc1c2ccncc2c(C)c2c1[nH]c1ccc(Cl)cc12`, the TGI in assay [8] was 3.91 µM; in assay [1] it was 7.93 µM and 8.98 µM; in [3] it was 9.43 µM and 2.71 µM; in assay [4] it was 6.1 µM and 13 µM; in assay [9], 7.81 µM; in assay [6] it was 22.5 µM and 20.4 µM. The TGI in assay [10] was 6.28 µM; in assay [11], 10.2 µM; in assay [7], 18 µM. In addition, the figures for the GI50 in assay [3], in assay [4] and in [6] were 1.41 µM, 2.6 µM and 3.07 µM, respectively.

On to `O=C1C=Cc2ncccc2C1=O`, for which the TGI was 39.5 µM in assay [2]; 39.3 µM in [3]; 33.6 µM in assay [4]; more than 66.5 µM in assay [6]; more than 64.7 µM in [7].

On to `O=CCCCC(Sc1ccccc1)Sc1ccccc1`, for which the TGI in assay [1] was determined as 39.8 µM; in [2], 40 µM; in [3], 42.6 µM; in [4] it was 49 µM; in [6], 37.7 µM.
